Experimental data reported in patent US12480137B2, “Plants having increased tolerance to herbicides” (BASF SE, priority 2014, dated 2025).

What was measured:
Format in all cases: in vivo, Arabidopsis thaliana
[1] = test system: A. thaliana WT L. erecta; experiment: Greenhouse phytotox, pre-emergent treatment
Procedure: (§1) Additionally, M2 or M3 Arabidopsis plants are tested for improved tolerance to cellulose biosynthesis-inhibiting herbicides in greenhouse studies (e. g. with the following cellulose biosynthesis-inhibiting herbicides: 6-cyclopentyl-N4-(2,3,4,5,6-pentafluorophenyl)-1,3,5-triazine-2,4-diamine; 6-(1-fluoro-1-methyl-ethyl)-N4-(2,3,4,5,6-pentafluorophenyl)-1,3,5-triazine-2,4-diamine; N4-(4-chloro-3,5,6-trifluoro-2-pyridyl)-6-(1-fluoro-1-methyl-ethyl)-1,3,5-triazine-2,4-diamine; 6-(2,6-difluorophenyl)-N4-(2,3,5,6-tetrafluorophenyl)-1,3,5-triazine-2,4-diamine; N4-(4-bromo-2,3,5,6-tetrafluoro-phenyl)-6-(1-fluoro-1-methyl-ethyl)-1,3,5-triazine-2,4-diamine.

[2] = test system: Cesa3_S1040L, fpx1-1 mutant line; experiment: Greenhouse phytotox, pre-emergent treatment
Procedure: as §1

[3] = test system: Cesa1_G1009D, fpx2-3 mutant line; experiment: Greenhouse phytotox, pre-emergent treatment
Procedure: as §1

[4] = test system: Cesa1_P1010L, fpx2-2 mutant line; experiment: Greenhouse phytotox, pre-emergent treatment
Procedure: as §1

[5] = test system: Cesa1_G1013R, fpx2-1 mutant line; experiment: Greenhouse phytotox, pre-emergent treatment
Procedure: as §1

[6] = test system: Cesa3_S1037F, fpx1-2 mutant line; experiment: Greenhouse phytotox, pre-emergent treatment
Procedure: as §1

[7] = test system: Cesa3_S983F, fpx1-3 mutant line; experiment: Greenhouse phytotox, pre-emergent treatment
Procedure: as §1

[8] = test system: A. thaliana WT L. erecta; experiment: Greenhouse phytotox, post-emergent treatment 6 weeks after sowing
Procedure: as §1

[9] = test system: Cesa3_S1040L, fpx1-1 mutant line; experiment: as above
Procedure: as §1

[10] = test system: Cesa1_G1009D, fpx2-3 mutant line; experiment: as above
Procedure: as §1

[11] = test system: Cesa1_P1010L, fpx2-2 mutant line; experiment: as above
Procedure: as §1

[12] = test system: Cesa1_G1013R, fpx2-1 mutant line; experiment: as above
Procedure: as §1

[13] = test system: Cesa3_S1037F, fpx1-2 mutant line; experiment: as above
Procedure: as §1

[14] = test system: Cesa3_S983F, fpx1-3 mutant line; experiment: as above
Procedure: as §1

[15] = test system: transgenic Arabidopsis plants, construct AtCESA3_S1037F; experiment: Growth inhibition of transgenic Arabidopsis in 48-well plates, tolerance factor from IC50; settings: SEQ ID NO 3, substitution S1037F, growth inhibition seven to ten days after seeding
Excerpt: (§2) For transformation of Arabidopsis thaliana, wildtype or mutated cellulose synthase sequences based on one of the following sequences SEQ ID NO: 72, 73, 74, 75, 76, or 77, are cloned with standard cloning techniques as described in Sambrook et al. (Molecular cloning (2001) Cold Spring Harbor Laboratory Press) in a binary vector containing resistance marker gene cassette (AHAS) and mutated cellulose synthase sequence (marked as GOI) in between ubiquitin promoter (PcUbi) and nopaline synthase terminator (NOS) sequence. Binary plasmids are introduced to Agrobacterium tumefaciens for plant transformation. Arabidopsis thaliana are transformed with wildtype or mutated cellulose synthase sequences by floral dip method as decribed by McElver and Singh (WO 2008/124495). Transgenic Arabidopsis plants are subjected to TaqMan analysis for analysis of the number of integration loci.
(§3) Transgenic Arabidopsis thaliana plants are assayed for improved tolerance to azine herbicides like e. g. 6-cyclopentyl-N4-(2,3,4,5,6-pentafluorophenyl)-1,3,5-triazine-2,4-diamine in 48-well plates. Therefore, T2 seeds are surface sterilized by stirring for 5 min in ethanol+water (70+30 by volume), rinsing one time with ethanol+water (70+30 by volume) and two times with sterile, deionized water. The seeds are resuspended in 0.1% agar dissolved in water (w/v) Four to five seeds per well are plated on solid nutrient medium consisting of half-strength murashige skoog nutrient solution, pH 5.8 (Murashige and Skoog (1962) Physiologia Plantarum 15: 473-497). Compounds are dissolved in dimethylsulfoxid (DMSO) and added to the medium prior solidification (final DMSO concentration 0.1%). Multi well plates are incubated in a growth chamber at 22° C., 75% relative humidity and 110 μmol Phot*m^−2*s^−1 with 14:10 h light:dark photoperiod. Growth inhibition is evaluated seven to ten days after seeding in comparison to wild type plants. Tolerance factors are calculated based on IC50 values of growth inhibition of transformed versus non-transformed Arabidopsis plants.

[16] = test system: transgenic Arabidopsis plants, construct AtCESA1_G1013R; experiment: as above; settings: SEQ ID NO 1, substitution G1013R, growth inhibition seven to ten days after seeding
Excerpt: as §2, §3

[17] = test system: transgenic Arabidopsis plants, construct AtCESA3_wt; experiment: as above; settings: SEQ ID NO 3, growth inhibition seven to ten days after seeding
Excerpt: as §2, §3

[18] = test system: transgenic Arabidopsis plants, construct AtCESA3_S1040L; experiment: as above; settings: SEQ ID NO 3, substitution S1040L, growth inhibition seven to ten days after seeding
Excerpt: as §2, §3

[19] = test system: transgenic Arabidopsis plants, construct AtCESA1 wt; experiment: as above; settings: SEQ ID NO 1, growth inhibition seven to ten days after seeding
Excerpt: as §2, §3

## Cc1cccc(-n2nc(C(N)=O)nc2-c2ccccc2)c1 [1-(m-tolyl)-5-phenyl-1,2,4-triazole-3-carboxamide, reference compound]
[1]; 3.91 g ai/ha
  Phytotox value on a scale from 0-100 (100 is 100% damage): 0
[1]; 15.63 g ai/ha
  Phytotox value on a scale from 0-100 (100 is 100% damage): 63
[1]; 62.5 g ai/ha
  Phytotox value on a scale from 0-100 (100 is 100% damage): 100
[1]; 250 g ai/ha
  Phytotox value on a scale from 0-100 (100 is 100% damage): 100
[2]; 3.91 g ai/ha
  Phytotox value on a scale from 0-100 (100 is 100% damage): 38
[2]; 15.63 g ai/ha
  Phytotox value on a scale from 0-100 (100 is 100% damage): 30
[2]; 62.5 g ai/ha
  Phytotox value on a scale from 0-100 (100 is 100% damage): 0
[2]; 250 g ai/ha
  Phytotox value on a scale from 0-100 (100 is 100% damage): 25
[3]; 3.91 g ai/ha
  Phytotox value on a scale from 0-100 (100 is 100% damage): 0
[3]; 15.63 g ai/ha
  Phytotox value on a scale from 0-100 (100 is 100% damage): 18
[3]; 62.5 g ai/ha
  Phytotox value on a scale from 0-100 (100 is 100% damage): 30
[3]; 250 g ai/ha
  Phytotox value on a scale from 0-100 (100 is 100% damage): 45
[4]; 3.91 g ai/ha
  Phytotox value on a scale from 0-100 (100 is 100% damage): 0
[4]; 15.63 g ai/ha
  Phytotox value on a scale from 0-100 (100 is 100% damage): 20
[4]; 62.5 g ai/ha
  Phytotox value on a scale from 0-100 (100 is 100% damage): 13
[4]; 250 g ai/ha
  Phytotox value on a scale from 0-100 (100 is 100% damage): 35
[5]; 3.91 g ai/ha
  Phytotox value on a scale from 0-100 (100 is 100% damage): 5
[5]; 15.63 g ai/ha
  Phytotox value on a scale from 0-100 (100 is 100% damage): 15
[5]; 62.5 g ai/ha
  Phytotox value on a scale from 0-100 (100 is 100% damage): 20
[5]; 250 g ai/ha
  Phytotox value on a scale from 0-100 (100 is 100% damage): 15
[6]; 3.91 g ai/ha
  Phytotox value on a scale from 0-100 (100 is 100% damage): 0
[6]; 15.63 g ai/ha
  Phytotox value on a scale from 0-100 (100 is 100% damage): 30
[6]; 62.5 g ai/ha
  Phytotox value on a scale from 0-100 (100 is 100% damage): 23
[6]; 250 g ai/ha
  Phytotox value on a scale from 0-100 (100 is 100% damage): 68
[7]; 3.91 g ai/ha
  Phytotox value on a scale from 0-100 (100 is 100% damage): 0
[7]; 15.63 g ai/ha
  Phytotox value on a scale from 0-100 (100 is 100% damage): 8
[7]; 62.5 g ai/ha
  Phytotox value on a scale from 0-100 (100 is 100% damage): 5
[7]; 250 g ai/ha
  Phytotox value on a scale from 0-100 (100 is 100% damage): 30
[8]; 62.5 g ai/ha
  Phytotox value on a scale from 0-100 (100 is 100% damage): 78
[8]; 125 g ai/ha
  Phytotox value on a scale from 0-100 (100 is 100% damage): 83
[8]; 250 g ai/ha
  Phytotox value on a scale from 0-100 (100 is 100% damage): 95
[9]; 62.5 g ai/ha
  Phytotox value on a scale from 0-100 (100 is 100% damage): 0
[9]; 125 g ai/ha
  Phytotox value on a scale from 0-100 (100 is 100% damage): 23
[9]; 250 g ai/ha
  Phytotox value on a scale from 0-100 (100 is 100% damage): 55
[10]; 62.5 g ai/ha
  Phytotox value on a scale from 0-100 (100 is 100% damage): 23
[10]; 125 g ai/ha
  Phytotox value on a scale from 0-100 (100 is 100% damage): 33
[10]; 250 g ai/ha
  Phytotox value on a scale from 0-100 (100 is 100% damage): 45
[11]; 62.5 g ai/ha
  Phytotox value on a scale from 0-100 (100 is 100% damage): 15
[11]; 125 g ai/ha
  Phytotox value on a scale from 0-100 (100 is 100% damage): 15
[11]; 250 g ai/ha
  Phytotox value on a scale from 0-100 (100 is 100% damage): 48
[12]; 62.5 g ai/ha
  Phytotox value on a scale from 0-100 (100 is 100% damage): 23
[12]; 125 g ai/ha
  Phytotox value on a scale from 0-100 (100 is 100% damage): 33
[12]; 250 g ai/ha
  Phytotox value on a scale from 0-100 (100 is 100% damage): 40
[13]; 62.5 g ai/ha
  Phytotox value on a scale from 0-100 (100 is 100% damage): 30
[13]; 125 g ai/ha
  Phytotox value on a scale from 0-100 (100 is 100% damage): 50
[13]; 250 g ai/ha
  Phytotox value on a scale from 0-100 (100 is 100% damage): 68
[14]; 62.5 g ai/ha
  Phytotox value on a scale from 0-100 (100 is 100% damage): 28
[14]; 125 g ai/ha
  Phytotox value on a scale from 0-100 (100 is 100% damage): 23
[14]; 250 g ai/ha
  Phytotox value on a scale from 0-100 (100 is 100% damage): 53
[15]
  Relative tolerance rate (non-transgenic = 1.0): 1333
[16]
  Relative tolerance rate (non-transgenic = 1.0): 33
[17]
  Relative tolerance rate (non-transgenic = 1.0): 4
[18]
  Relative tolerance rate (non-transgenic = 1.0): 2
[19]
  Relative tolerance rate (non-transgenic = 1.0): 3
